Values quoted from earlier work as cited in Sander's compilation of Henry's law constants.

Experiment: Henry solubility constant Hcp at 298.15 K (mol/(m3 Pa))
Conditions: cited value
[1] = reference: Gaffney and Senum (1984)
[2] = reference: Fogg and Sangster (2003)
[3] = reference: Burkholder et al. (2015)
[4] = reference: Burkholder et al. (2019)
[5] = reference: Sander et al. (2006)
[6] = reference: Sander et al. (2011)
[7] = reference: Dohnal et al. (2006)
[8] = reference: Wania and Dugani (2003)

Compound | Henry solubility constant Hcp (reference: Brockbank (2013)) | also measured
Cc1ccc(O)c(C)c1 [1-hydroxy-2,4-dimethylbenzene] | 3.5 | Henry solubility constant Hcp (reference: Goldstein (1982)): 4.1; Henry solubility constant Hcp (reference: Howard (1989)): 16; Henry solubility constant Hcp (reference: Petrasek et al. (1983)): 17
Cc1ccc(C)c(O)c1 [1-hydroxy-2,5-dimethylbenzene] | 8.2 | –
Cc1ccccc1O [1-hydroxy-2-methylbenzene] | 6.7 | Henry solubility constant Hcp [1]: 8.2; Henry solubility constant Hcp (reference: Howard (1989)): 6.2
Cc1cc(C)cc(O)c1 [1-hydroxy-3,5-dimethylbenzene] | 15 | –
Cc1cccc(O)c1 [1-hydroxy-3-methylbenzene] | 12 | Henry solubility constant Hcp (reference: Howard (1989)): 11
Cc1ccc(O)cc1 [1-hydroxy-4-methylbenzene] | 13 | Henry solubility constant Hcp [1]: 9.9; Henry solubility constant Hcp (reference: Howard (1989)): 10
CCCCI [1-iodobutane] | 0.00069 | –
CCCCCCI [1-iodohexane] | 0.00034 | –
CCCI [1-iodopropane] | 0.0011 | –
Cc1cccc2ccccc12 [1-methylnaphthalene] | 0.02 | Henry solubility constant Hcp [2]: 0.022
CCCC[N+](=O)[O-] [1-nitrobutane] | 0.076 | –
CCC[N+](=O)[O-] [1-nitropropane] | 0.14 | Henry solubility constant Hcp [3]: 0.13; Henry solubility constant Hcp [4]: 0.13; Henry solubility constant Hcp [5]: 0.13; Henry solubility constant Hcp [6]: 0.13
C=CCCCCCCC [1-nonene] | 1.1e-05 | –
C#CCCCCCCC [1-nonyne] | 8.5e-05 | –
CCCCCCCCN [1-octanamine] | 0.22 | –
CCCCCCCCO [1-octanol] | 0.34 | –
C=CCCCCCC [1-octene] | 1.6e-05 | –
C#CCCCCCC [1-octyne] | 0.00012 | –
C=CCCCCCCCCCCCCC [1-pentadecene] | 2.2e-06 | –
CCCCCN [1-pentanamine] | 0.43 | –
CCCCCO [1-pentanol] | 0.86 | Henry solubility constant Hcp [7]: 1
C=CCCC [1-pentene] | 3e-05 | –
CC(=O)c1ccccc1 [1-phenylethanone] | 1.1 | –
CCCO [1-propanol] | 1.5 | Henry solubility constant Hcp [3]: 1.4; Henry solubility constant Hcp [4]: 1.4; Henry solubility constant Hcp [7]: 1.4; Henry solubility constant Hcp [2]: 1.4; Henry solubility constant Hcp [5]: 1.3; Henry solubility constant Hcp [6]: 1.4
C=CCCCCCCCCCCCC [1-tetradecene] | 3e-06 | –
CCCCCCCCCCCO [1-undecanol] | 0.14 | –
OC[C@@H](O)[C@@H](O)CO [2(R),3(S)-1,2,3,4-butanetetrol] | – | Henry solubility constant Hcp [3]: 1.1e+10; Henry solubility constant Hcp [4]: 1.1e+10
Brc1cc(Br)c(Oc2cc(Br)c(Br)cc2Br)cc1Br [2,2',4,4',5,5'-hexabromodiphenyl ether] | – | Henry solubility constant Hcp [8]: 2.9
Clc1cc(Cl)c(-c2cc(Cl)c(Cl)cc2Cl)cc1Cl [2,2',4,4',5,5'-hexachlorobiphenyl] | – | Henry solubility constant Hcp (reference: Murphy et al. (1983b)): 0.028
Brc1ccc(Oc2cc(Br)c(Br)cc2Br)c(Br)c1 [2,2',4,4',5-pentabromodiphenyl ether] | – | Henry solubility constant Hcp [8]: 1.9
